Assay results as given in a compilation of properties of binary mixtures (doi:10.1016/j.molliq.2014.05.027).

Assay: xn = mol fraction of the nth substance listed
Details: 101 kPa

viscosity (293.15 K, x2 = 0) [mPa·s] | electrical conductivity (298.15 K, x1 = 0.002) [S/m] | electrical conductivity (298.15 K, x1 = 0.0071) [S/m] | electrical conductivity (298.15 K, x1 = 0.01) [S/m] | electrical conductivity (298.15 K, x2 = 0) [S/m] | viscosity (298.15 K, x2 = 0) [mPa·s] | electrical conductivity (298.15 K, x2 = 0.1092) [S/m] | electrical conductivity (298.15 K, x2 = 0.2563) [S/m] | electrical conductivity (298.15 K, x2 = 0.5026) [S/m] | electrical conductivity (298.15 K, x2 = 0.6515) [S/m] | electrical conductivity (298.15 K, x2 = 0.8065) [S/m] | electrical conductivity (298.15 K, x2 = 0.8514) [S/m] | electrical conductivity (298.15 K, x2 = 0.9001) [S/m] | electrical conductivity (298.15 K, x2 = 0.9252) [S/m] | viscosity (303.15 K, x2 = 0.7993) [mPa·s] | viscosity (308.15 K, x2 = 0) [mPa·s] | viscosity (293.15 K, x1 = 1) [mPa·s] | viscosity (298.15 K, x1 = 1) [mPa·s] | viscosity (303.15 K, x1 = 1) [mPa·s] | viscosity (313.15 K, x1 = 1) [mPa·s] | Structure (SMILES)
8.2 | 0.522 | 1.51 | 1.92 | 0.371 | 6.93 | 0.433 | 0.553 | 0.858 | 1.21 | 2 | 2.52 | 3.27 | 3.73 | 5.76 | 5.07 |  |  |  |  | CC(=O)[O-].Cn1cc[nH+]c1 + O
 |  |  |  |  |  |  |  |  |  |  |  |  |  |  |  | 1.002 | 0.89 | 0.797 | 0.651 | O + CC(=O)[O-].Cn1cc[nH+]c1
